Where two headings read alike, the source gives them in different places.
Experiments:
Type in all cases: in vivo
[1] = system: Myzus persicae (Green peach aphid); experiment: Myzus persicae feeding/contact activity on sunflower leaf discs; details: foliar, 144 h
Description: Myzus persicae (Green peach aphid): Feeding/Contact activity
Sunflower leaf discs were placed onto agar in a 24-well microtiter plate and sprayed with aqueous test solutions prepared from 10′000 ppm DMSO stock solutions. After drying, the leaf discs were infested with an aphid population of mixed ages. The samples were assessed for mortality 6 days after infestation.

[2] = system: Plutella xylostella (Diamond back moth); experiment: Plutella xylostella feeding/contact activity on artificial diet; details: 120 h
Description: Plutella xylostella (Diamond back moth): Feeding/contact activity
24-well microtiter plates with artificial diet were treated with aqueous test solutions prepared from 10′000 ppm DMSO stock solutions by pipetting. After drying, the plates were infested with L2 larvae (10 to 15 per well). The samples were assessed for mortality 5 days after infestation.

[3] = system: Euschistus heros (Neotropical Brown Stink Bug); experiment: Euschistus heros feeding/contact activity on soybean leaves; details: 120 h
Description: Euschistus heros (Neotropical Brown Stink Bug): Feeding/contact activity
Soybean leaves on agar in 24-well microtiter plates were sprayed with aqueous test solutions prepared from 10′000 ppm DMSO stock solutions. After drying the leaves were infested with N2 nymphs. The samples were assessed for mortality 5 days after infestation.

[4] = system: Spodoptera littoralis (Egyptian cotton leaf worm); experiment: Spodoptera littoralis feeding/contact activity on cotton leaf discs; details: foliar, 72 h
Description: Spodoptera littoralis (Egyptian cotton leaf worm): Feeding/contact activity
Cotton leaf discs were placed onto agar in 24-well microtiter plates and sprayed with aqueous test solutions prepared from 10′000 ppm DMSO stock solutions. After drying the leaf discs were infested with five L1 larvae. The samples were assessed for mortality 3 days after infestation. […] 2, 3, 4, 5, 6, 7, 8, 9, 10, 11, 12, 13, 14, 15, 16, 17, 18, 19, 20, 21, 22, 23, 24, 25, 26, 27, 28 and 29.

[5] = system: Tetranychus urticae (Two-spotted spider mite); experiment: Tetranychus urticae feeding/contact activity on bean leaf discs; details: foliar, 192 h, read-out: mortality on mixed population (mobile stages)
Description: Tetranychus urticae (Two-spotted spider mite): Feeding/contact activity
Bean leaf discs on agar in 24-well microtiter plates were sprayed with aqueous test solutions prepared from 10′000 ppm DMSO stock solutions. After drying the leaf discs were infested with a mite population of mixed ages. The samples were assessed for mortality on mixed population (mobile stages) 8 days after infestation.

[6] = application rate 200 ppm, aphid population of mixed ages, assessed 6 days after infestation, read-out: mortality
[7] = application rate 200 ppm, L2 larvae, assessed 5 days after infestation, read-out: mortality
[8] = application rate 200 ppm, N2 nymphs, assessed 5 days after infestation, read-out: mortality
[9] = application rate 200 ppm, L1 larvae, assessed 3 days after infestation, read-out: mortality
[10] = application rate 200 ppm, mite population of mixed ages, assessed 8 days after infestation

Measured: mortality at 200 ppm

CCOCN(C(=O)c1cc(-c2cnn(-c3c(OC(F)F)c(C(F)(C(F)(F)F)C(F)(F)F)nn3C)c2)ccc1Cl)C1CC1 [Example 27, 2-chloro-N-cyclopropyl-5-[1-[4-(difluoromethoxy)-2-methyl-5-[1,2,2,2-tetrafluoro-1-(trifluoromethyl)ethyl]pyrazol-3-yl]pyrazol-4-yl]-N-(ethoxymethyl)benzamide]
≥ 80%: [1]; [6] | [2]; [7] | [3]; [8] | [4]; [9] | [5]; [10]

COCN(C(=O)c1cc(-c2cnn(-c3c(OC(F)F)c(C(F)(C(F)(F)F)C(F)(F)F)nn3C)c2)ccc1Cl)C1(C#N)CC1 [Example 9, 2-chloro-N-(1-cyanocyclopropyl)-5-[1-[4-(difluoromethoxy)-2-methyl-5-[1,2,2,2-tetrafluoro-1-(trifluoromethyl)ethyl]pyrazol-3-yl]pyrazol-4-yl]-N-(methoxymethyl)benzamide]
≥ 80%: [1]; [6] | [2]; [7] | [3]; [8] | [4]; [9] | [5]; [10]

CCOCCN(C(=O)c1cc(-c2cnn(-c3c(OC(F)F)c(C(F)(C(F)(F)F)C(F)(F)F)nn3C)c2)ccc1Cl)C1(C#N)CC1 [Example 13, 2-chloro-N-(1-cyanocyclopropyl)-5-[1-[4-(difluoromethoxy)-2-methyl-5-[1,2,2,2-tetrafluoro-1-(trifluoromethyl)ethyl]pyrazol-3-yl]pyrazol-4-yl]-N-(2-ethoxyethyl)benzamide]
≥ 80%: [1]; [6] | [2]; [7] | [4]; [9] | [5]; [10]

CC(C)CN(C(=O)c1cc(-c2cnn(-c3c(OC(F)F)c(C(F)(C(F)(F)F)C(F)(F)F)nn3C)c2)ccc1Cl)C1(C#N)CC1 [Example 21, 2-chloro-N-(1-cyanocyclopropyl)-5-[1-[4-(difluoromethoxy)-2-methyl-5-[1,2,2,2-tetrafluoro-1-(trifluoromethyl)ethyl]pyrazol-3-yl]pyrazol-4-yl]-N-isobutyl-benzamide]
≥ 80%: [3]; [8] | [4]; [9]

COCC(=O)N(C(=O)c1cc(-c2cnn(-c3c(OC(F)F)c(C(F)(C(F)(F)F)C(F)(F)F)nn3C)c2)ccc1Cl)C1CC1 [Example 22, 2-chloro-N-cyclopropyl-5-[1-[-4-(difluoromethoxy)-2-methyl-5-[1,2,2,2-tetrafluoro-1-(trifluoromethyl)ethyl]pyrazol-3-yl]pyrazol-4-yl]-N-(2-methoxyacetyl)benzamide]
≥ 80%: [1]; [6] | [2]; [7] | [3]; [8] | [4]; [9] | [5]; [10]

CCN(C(=O)c1cc(-c2cnn(-c3c(OC(F)F)c(C(F)(C(F)(F)F)C(F)(F)F)nn3C)c2)ccc1Cl)C1CC1 [Example 26, 2-chloro-N-cyclopropyl-5-[1-[4-(difluoromethoxy)-2-methyl-5-[1,2,2,2-tetrafluoro-1-(trifluoromethyl)ethyl]pyrazol-3-yl]pyrazol-4-yl]-N-ethyl-benzamide]
≥ 80%: [1]; [6] | [2]; [7] | [3]; [8] | [4]; [9] | [5]; [10]

CN(C(=O)c1cc(-c2cnn(-c3c(OC(F)F)c(C(F)(C(F)(F)F)C(F)(F)F)nn3C)c2)ccc1Cl)C1CC1 [Example 25, 2-chloro-N-cyclopropyl-5-[1-[4-(difluoromethoxy)-2-methyl-5-[1,2,2,2-tetrafluoro-1-(trifluoromethyl)ethyl]pyrazol-3-yl]pyrazol-4-yl]-N-methyl-benzamide]
≥ 80%: [1]; [6] | [2]; [7] | [3]; [8] | [4]; [9] | [5]; [10]

CCOCN(C(=O)c1cc(-c2cnn(-c3c(OC(F)F)c(C(F)(C(F)(F)F)C(F)(F)F)nn3C)c2)ccc1Cl)C1(C#N)CC1 [Example 10, 2-chloro-N-(1-cyanocyclopropyl)-5-[1-[4-(difluoromethoxy)-2-methyl-5-[1,2,2,2-tetrafluoro-1-(trifluoromethyl)ethyl]pyrazol-3-yl]pyrazol-4-yl]-N-(ethoxymethyl)benzamide]
≥ 80%: [1]; [6] | [2]; [7] | [3]; [8] | [4]; [9] | [5]; [10]

Cn1nc(C(F)(C(F)(F)F)C(F)(F)F)c(OC(F)F)c1-n1cc(-c2ccc(Cl)c(C(=O)NC3CC3)c2)cn1 [Example 17, 2-chloro-N-cyclopropyl-5-[1-[4-(difluoromethoxy)-2-methyl-5-[1,2,2,2-tetrafluoro-1-(trifluoromethyl)ethyl]pyrazol-3-yl]pyrazol-4-yl]benzamide]
≥ 80%: [1]; [6] | [2]; [7] | [3]; [8] | [4]; [9] | [5]; [10]

CC(C)OC(=O)N(C(=O)c1cc(-c2cnn(-c3c(OC(F)F)c(C(F)(C(F)(F)F)C(F)(F)F)nn3C)c2)ccc1Cl)C1CC1 [Example 24, isopropyl N-[2-chloro-5-[1-[4-(difluoromethoxy)-2-methyl-5-[1,2,2,2-tetrafluoro-1-(trifluoromethyl)ethyl]pyrazol-3-yl]pyrazol-4-yl]benzoyl]-N-cyclopropyl-carbamate]
≥ 80%: [1] | [2] | [3] | [4] | [5]

CC(C)N(C(=O)c1cc(-c2cnn(-c3c(OC(F)F)c(C(F)(C(F)(F)F)C(F)(F)F)nn3C)c2)ccc1Cl)C1(C#N)CC1 [Example 5, 2-chloro-N-(1-cyanocyclopropyl)-5-[1-[4-(difluoromethoxy)-2-methyl-5-[1,2,2,2-tetrafluoro-1-(trifluoromethyl)ethyl]pyrazol-3-yl]pyrazol-4-yl]-N-isopropyl-benzamide]
≥ 80%: [3]; [8] | [4]; [9]

COC(=O)N(C(=O)c1cc(-c2cnn(-c3c(OC(F)F)c(C(F)(C(F)(F)F)C(F)(F)F)nn3C)c2)ccc1Cl)C1CC1 [Example 23, methyl N-[2-chloro-5-[1-[4-(difluoromethoxy)-2-methyl-5-[1,2,2,2-tetrafluoro-1-(trifluoromethyl)ethyl]pyrazol-3-yl]pyrazol-4-yl]benzoyl]-N-cyclopropyl-carbamate]
≥ 80%: [1] | [2] | [3] | [4] | [5]

CCCN(C(=O)c1cc(-c2cnn(-c3c(OC(F)F)c(C(F)(C(F)(F)F)C(F)(F)F)nn3C)c2)ccc1Cl)C1(C#N)CC1 [Example 14, 2-chloro-N-(1-cyanocyclopropyl)-5-[1 - [4-(difluoromethoxy)-2-methyl-5-[1,2,2,2-tetrafluoro-1-(trifluoromethyl)ethyl]pyrazol-3-yl]pyrazol-4-yl]-N-propyl-benzamide]
≥ 80%: [3]; [8] | [4]; [9]

CC(C)OC(=O)N(C(=O)c1cc(-c2cnn(-c3c(OC(F)F)c(C(F)(C(F)(F)F)C(F)(F)F)nn3C)c2)ccc1Cl)C1(C#N)CC1 [Example 20, isopropyl N-[2-chloro-5-[1-[4-(difluoromethoxy)-2-methyl-5-[1,2,2,2-tetrafluoro-1-(trifluoromethyl)ethyl]pyrazol-3-yl]pyrazol-4-yl]benzoyl]-N-(1-cyanocyclopropyl)carbamate]
≥ 80%: [1] | [2] | [3] | [4]

From patent US11365187B2, “Pesticidally active pyrazole derivatives” (SYNGENTA PARTICIPATIONS AG, priority 2017, dated 2022)
